Test results from patent US12559506B2, “Indazole based compounds and associated methods of use” (Arvinas Operations, Inc., priority 2021, dated 2026).
Read-outs that look alike come from different tables or passages of the source. Each block holds one molecule with its values, some of them ahead of it.

Biological target: T1, LRRK2 (endogenous, HiBit tagged) (Homo sapiens, UniProt Q5S007)
T1 construct: endogenous in cells; host or cells: HEK293 cells with HiBit knock-in at the endogenous LRRK2 locus, stably expressing firefly luciferase
T1 sequence (Q5S007 whole entry): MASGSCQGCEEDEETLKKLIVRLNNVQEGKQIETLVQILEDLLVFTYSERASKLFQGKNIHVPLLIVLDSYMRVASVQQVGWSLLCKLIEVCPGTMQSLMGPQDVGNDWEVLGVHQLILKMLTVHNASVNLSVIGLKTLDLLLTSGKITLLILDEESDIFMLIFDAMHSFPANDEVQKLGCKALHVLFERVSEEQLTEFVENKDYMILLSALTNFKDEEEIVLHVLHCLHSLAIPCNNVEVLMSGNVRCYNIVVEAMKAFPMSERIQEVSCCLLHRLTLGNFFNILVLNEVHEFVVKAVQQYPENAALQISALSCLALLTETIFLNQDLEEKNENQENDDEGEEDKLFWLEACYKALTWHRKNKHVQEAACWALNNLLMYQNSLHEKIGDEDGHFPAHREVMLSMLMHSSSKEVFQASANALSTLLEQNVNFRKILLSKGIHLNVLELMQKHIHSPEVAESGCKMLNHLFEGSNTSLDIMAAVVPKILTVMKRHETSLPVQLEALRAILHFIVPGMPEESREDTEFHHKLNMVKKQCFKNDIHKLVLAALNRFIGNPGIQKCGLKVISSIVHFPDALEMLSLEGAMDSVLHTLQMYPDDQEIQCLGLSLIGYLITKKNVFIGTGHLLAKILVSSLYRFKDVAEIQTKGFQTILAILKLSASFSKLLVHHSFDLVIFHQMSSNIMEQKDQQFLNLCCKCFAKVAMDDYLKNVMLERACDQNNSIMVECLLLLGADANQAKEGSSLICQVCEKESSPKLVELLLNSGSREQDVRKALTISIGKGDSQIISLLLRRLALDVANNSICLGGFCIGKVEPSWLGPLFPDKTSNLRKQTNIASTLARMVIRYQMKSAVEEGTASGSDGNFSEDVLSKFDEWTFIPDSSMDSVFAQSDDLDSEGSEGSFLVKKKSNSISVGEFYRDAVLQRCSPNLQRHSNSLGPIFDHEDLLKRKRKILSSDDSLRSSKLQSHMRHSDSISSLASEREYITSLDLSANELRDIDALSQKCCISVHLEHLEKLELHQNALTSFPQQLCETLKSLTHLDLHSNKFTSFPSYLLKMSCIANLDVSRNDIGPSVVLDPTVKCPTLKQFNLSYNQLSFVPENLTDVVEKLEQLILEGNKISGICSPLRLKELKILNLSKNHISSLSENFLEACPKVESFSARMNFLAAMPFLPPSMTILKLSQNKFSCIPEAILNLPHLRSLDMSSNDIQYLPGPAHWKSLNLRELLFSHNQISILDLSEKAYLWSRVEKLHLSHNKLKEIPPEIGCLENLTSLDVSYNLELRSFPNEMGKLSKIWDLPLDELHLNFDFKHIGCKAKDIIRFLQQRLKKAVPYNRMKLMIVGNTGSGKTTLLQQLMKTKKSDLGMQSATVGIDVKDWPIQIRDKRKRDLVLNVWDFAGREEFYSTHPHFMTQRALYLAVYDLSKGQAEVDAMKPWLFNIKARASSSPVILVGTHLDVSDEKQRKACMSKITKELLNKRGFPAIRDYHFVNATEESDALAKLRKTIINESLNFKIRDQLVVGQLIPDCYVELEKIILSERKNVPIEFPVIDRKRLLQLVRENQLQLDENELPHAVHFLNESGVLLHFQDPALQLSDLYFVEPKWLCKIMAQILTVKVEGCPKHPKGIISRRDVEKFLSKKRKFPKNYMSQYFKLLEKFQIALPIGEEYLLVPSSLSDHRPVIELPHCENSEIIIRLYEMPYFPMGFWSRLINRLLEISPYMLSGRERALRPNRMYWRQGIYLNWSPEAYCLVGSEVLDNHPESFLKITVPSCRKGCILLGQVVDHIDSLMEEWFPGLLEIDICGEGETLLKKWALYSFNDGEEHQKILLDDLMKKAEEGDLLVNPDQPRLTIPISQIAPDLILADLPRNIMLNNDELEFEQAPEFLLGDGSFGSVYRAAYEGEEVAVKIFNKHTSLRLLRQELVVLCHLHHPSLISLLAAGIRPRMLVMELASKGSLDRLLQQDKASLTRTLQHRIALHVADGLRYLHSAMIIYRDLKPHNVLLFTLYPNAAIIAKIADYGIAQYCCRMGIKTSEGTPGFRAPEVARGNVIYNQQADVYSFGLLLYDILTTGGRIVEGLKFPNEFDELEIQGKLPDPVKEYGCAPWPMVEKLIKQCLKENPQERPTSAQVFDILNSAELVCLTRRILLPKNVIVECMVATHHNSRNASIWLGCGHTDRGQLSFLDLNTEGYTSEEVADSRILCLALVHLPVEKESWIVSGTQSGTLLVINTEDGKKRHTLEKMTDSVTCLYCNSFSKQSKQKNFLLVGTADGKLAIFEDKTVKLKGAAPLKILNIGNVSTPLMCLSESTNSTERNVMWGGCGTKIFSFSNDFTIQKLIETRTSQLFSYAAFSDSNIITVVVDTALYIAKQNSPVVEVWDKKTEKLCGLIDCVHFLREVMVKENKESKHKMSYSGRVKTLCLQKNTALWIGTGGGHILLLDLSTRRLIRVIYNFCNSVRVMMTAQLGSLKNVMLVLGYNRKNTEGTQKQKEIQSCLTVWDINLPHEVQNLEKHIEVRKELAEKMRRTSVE
Assay: Endogenous LRRK2 degradation assay, endogenous gene C-terminally HiBit-tagged in HEK293 cells (Nano-Glo Dual Luciferase)
Assay type: cell-based
In short: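 LRRK2-HiBit quantified via Nano-Glo Dual Luciferase in HEK293 knock-in cells co-expressing firefly luciferase, after 24 h exposure to compound (1 μM final top, 1:3, 11 points). Values normalised to DMSO median per plate and curve-fitted; Alamar Blue viability run alongside.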

[1] = endogenous HiBit-tagged LRRK2, HEK293 cells, 24 hours, read-out: **Endogenous WT Dmax (%)
[2] = endogenous HiBit-tagged LRRK2, HEK293 cells, 24 hours, read-out: *Endogenous WT DC50
[3] = endogenous HiBit-tagged LRRK2 in HEK293 cells, 24 hours treatment, read-out: Endogenous WT DC50
[4] = endogenous HiBit-tagged LRRK2 in HEK293 cells, 24 hours treatment, read-out: Endogenous WT Dmax
[5] = endogenous HiBit-tagged LRRK2 in HEK293 cells, 24 hours treatment, read-out: **Endogenous WT Dmax (%)
[6] = endogenous HiBit-tagged LRRK2 in HEK293 cells, 24 hours treatment, read-out: *Endogenous WT DC50

SMILES: CC1(Oc2ccc3[nH]nc(-c4cc(N5CCC(CN6CCC(F)(CN7CCN(c8ccc9c(c8F)CN(C8CCC(=O)NC8=O)C9=O)CC7)CC6)CC5)ncn4)c3c2)CC1 (stereo not shown) [Compound 190, 3-[4-fluoro-5-[4-[[4-fluoro-1-[[1-[6-[5-(1-methylcyclopropoxy)-1H-indazol-3-yl]pyrimidin-4-yl]-4-piperidyl]methyl]-4-piperidyl]methyl]piperazin-1-yl]-1-oxo-isoindolin-2-yl]piperidine-2,6-dione]
Dmax [1]: ≥ 70%
DC50 [2]: < 10 nM

SMILES: COc1c(N2CCN(C[C@H]3CC[C@H](OC4CCN(c5cc(-c6[nH]nc7ccc(OC8(C)CC8)cc67)ncn5)CC4)CC3)CC2)ccc2c1CN(C1CCC(=O)NC1=O)C2=O (stereo partly shown) [Compound 252, 3-[4-methoxy-1-oxo-5-(4-{[(1r,4r)-4-[(1-{6-[5-(1-methylcyclopropoxy)-2H-indazol-3-yl]pyrimidin-4-yl}piperidin-4-yl)oxy]cyclohexyl]methyl}piperazin-1-yl)-2,3-dihydro-1H-isoindol-2-yl]piperidine-2,6-dione]
DC50 [3]: < 10 nM
Dmax [4]: 50 to 70%

SMILES: CC1(Oc2ccc3n[nH]c(-c4cc(N5CCC(CN6CCN(CC7CCN(c8c(F)ccc9c8CN(C8CCC(=O)NC8=O)C9=O)CC7)CC6)CC5)ncn4)c3c2)CC1 (stereo not shown) [Compound 217, 3-[5-fluoro-4-[4-[[4-[[1-[6-[5-(1-methylcyclopropoxy)-2H-indazol-3-yl]pyrimidin-4-yl]-4-piperidyl]methyl]piperazin-1-yl]methyl]-1-piperidyl]-1-oxo-isoindolin-2-yl]piperidine-2,6-dione]
DC50 [3]: 10 to 50 nM
Dmax [4]: 50 to 70%

SMILES: CC1(Oc2ccc3[nH]nc(-c4cc(N5CCC(CN6CCN(CC7CCN(c8ccc9c(c8)C(=O)N(C8CCC(=O)NC8=O)C9)CC7)CC6)CC5)ncn4)c3c2)CC1 (stereo not shown) [Compound 241, 3-[6-[4-[[4-[[1-[6-[5-(1-methylcyclopropoxy)-1H-indazol-3-yl]pyrimidin-4-yl]-4-piperidyl]methyl]piperazin-1-yl]methyl]-1-piperidyl]-1-oxo-isoindolin-2-yl]piperidine-2,6-dione]
DC50 [3]: < 10 nM
Dmax [4]: 50 to 70%

SMILES: C[C@H]1CN(c2cc(-c3n[nH]c4ccc(OC5(C)CC5)cc34)ncn2)CCN1CC1(F)CCN(CC2CCN(c3ccc4c(c3F)CN(C3CCC(=O)NC3=O)C4=O)CC2)CC1 (stereo partly drawn) [Compound 187, 3-[4-fluoro-5-[4-[[4-fluoro-4-[[(2S)-2-methyl-4-[6-[5-(1-methylcyclopropoxy)-1H-indazol-3-yl]pyrimidin-4-yl]piperazin-1-yl]methyl]-1-piperidyl]methyl]-1-piperidyl]-1-oxo-isoindolin-2-yl]piperidine-2,6-dione]
Dmax [1]: ≥ 70%
DC50 [2]: < 10 nM

SMILES: CC1(Oc2ccc3[nH]nc(-c4cc(N5CCN(C[C@H]6CC[C@H](CN7CCN(c8ccc9c(c8F)CN(C8CCC(=O)NC8=O)C9=O)CC7)CC6)CC5)ncn4)c3c2)CC1 (stereo partly shown) [Compound 202, 3-[4-fluoro-5-[[4-[[4-[4-[6-[5-(1-methylcyclopropoxy)-1H-indazol-3-yl]pyrimidin-4-yl]piperazin-1-yl]methyl]cyclohexyl]methyl]piperazin-1-yl]-1-oxo-isoindolin-2-yl]piperidine-2,6-dione]
Dmax [1]: ≥ 70%
DC50 [2]: < 10 nM

SMILES: C[C@H]1CN(c2cc(-c3[nH]nc4ccc(OC5(C)CC5)cc34)ncn2)CCN1CC(=O)N1CCC(CN2CCN(c3ccc4c(c3)C(=O)N(C3CCC(=O)NC3=O)C4=O)CC2)CC1 (stereo partly drawn) [Compound 59, 2-(2,6-dioxo-3-piperidyl)-5-[4-[[1-[2-[(2S)-2-methyl-4-[6-[5-(1-methylcyclopropoxy)-2H-indazol-3-yl]pyrimidin-4-yl]piperazin-1-yl]acetyl]-4-piperidyl]methyl]piperazin-1-yl]isoindoline-1,3-dione]
Dmax (endogenous HiBit-tagged LRRK2 in HEK293 cells, 24 hours, read-out: **Endogenous WT Dmax (%)): ≥ 70%
DC50 (endogenous HiBit-tagged LRRK2 in HEK293 cells, 24 hours, read-out: *Endogenous WT DC50): < 10 nM

SMILES: COc1c(N2CCC(CN3CCN(CC4CCN(c5cc(-c6n[nH]c7ccc(OC8(C)CC8)cc67)ncn5)CC4)C(C)(C)C3)CC2)ccc2c1CN(C1CCC(=O)NC1=O)C2=O (stereo not shown) [Compound 251, 3-{5-[4-({3,3-dimethyl-4-[(1-{6-[5-(1-methylcyclopropoxy)-1H-indazol-3-yl]pyrimidin-4-yl}piperidin-4-yl)methyl]piperazin-1-yl}methyl)piperidin-1-yl]-4-methoxy-1-oxo-2,3-dihydro-1H-isoindol-2-yl}piperidine-2,6-dione]
DC50 [3]: < 10 nM
Dmax [4]: 50 to 70%

SMILES: CC1(Oc2cc3c(-c4cc(N5CCC(O[C@H]6CC[C@H](CN7CCN(c8ccc9c(c8F)CN(C8CCC(=O)NC8=O)C9=O)CC7)CC6)CC5)ncn4)n[nH]c3cn2)CC1 (stereo partly shown) [Compound 254, 3-[4-fluoro-1-oxo-5-(4-{[(1r,4r)-4-[(1-{6-[5-(1-methylcyclopropoxy)-1H-pyrazolo[3,4-c]pyridin-3-yl]pyrimidin-4-yl}piperidin-4-yl)oxy]cyclohexyl]methyl}piperazin-1-yl)-2,3-dihydro-1H-isoindol-2-yl]piperidine-2,6-dione]
DC50 [3]: < 10 nM
Dmax [4]: 50 to 70%

SMILES: CC1(Oc2ccc3n[nH]c(-c4cc(N5CCN(C[C@H]6C[C@H](OC7CCN(c8ccc9c(c8F)CN(C8CCC(=O)NC8=O)C9=O)CC7)C6)CC5)ncn4)c3c2)CC1 (stereo partly shown) [Compound 300, 3-(4-fluoro-1-oxo-5-{4-[(1r,3r)-3-[(4-{6-[5-(1-methylcyclopropoxy)-2H-indazol-3-yl]pyrimidin-4-yl}piperazin-1-yl)methyl]cyclobutoxy]piperidin-1-yl}-2,3-dihydro-1H-isoindol-2-yl)piperidine-2,6-dione]
Dmax [5]: 50 to 70%
DC50 [6]: < 10 nM

SMILES: CC1(Oc2cc3c(-c4cc(N5CCC(CN6CCN(CC7CCN(c8ccc9c(c8F)CN(C8CCC(=O)NC8=O)C9=O)CC7)CC6)CC5)ncn4)n[nH]c3cn2)CC1 (stereo not shown) [Compound 201, 3-(4-fluoro-5-(4-((4-((1-(6-(5-(1-methylcyclopropoxy)-1H-pyrazolo[3,4-c]pyridin-3-yl)pyrimidin-4-yl)piperidin-4-yl)methyl)piperazin-1-yl)methyl)piperidin-1-yl)-1-oxoisoindolin-2-yl)piperidine-2,6-dione]
Dmax [1]: ≥ 70%
DC50 [2]: < 10 nM

SMILES: C[C@H]1CN(c2cc(-c3[nH]nc4ccc(OC5(C)CC5)cc34)ncn2)CCN1CCN1CCC(CN2CCN(c3ccc4c(c3F)CN(C3CCC(=O)NC3=O)C4=O)CC2)CC1 (stereo partly drawn) [Compound 184, 3-[4-fluoro-5-[4-[[1-[2-[(2S)-2-methyl-4-[6-[5-(1-methylcyclopropoxy)-2H-indazol-3-yl]pyrimidin-4-yl]piperazin-1-yl]ethyl]-4-piperidyl]methyl]piperazin-1-yl]-1-oxo-isoindolin-2-yl]piperidine-2,6-dione]
Dmax [1]: ≥ 70%
DC50 [2]: < 10 nM

Further lines, results first:

Dmax [5]: ≥ 70%
DC50 [6]: < 10 nM
SMILES: CC1(Oc2ccc3n[nH]c(-c4cc(N5CCC(CN6CC(F)(CC7CCN(c8ccc9c(c8F)CN(C8CCC(=O)NC8=O)C9=O)CC7)C6)CC5)ncn4)c3c2)CC1 (stereo not shown) [Compound 337, 3-{4-fluoro-5-[4-({3-fluoro-1-[(1-{6-[5-(1-methylcyclopropoxy)-2H-indazol-3-yl]pyrimidin-4-yl}piperidin-4-yl)methyl]azetidin-3-yl}methyl)piperidin-1-yl]-1-oxo-2,3-dihydro-1H-isoindol-2-yl}piperidine-2,6-dione]

Dmax [5]: 50 to 70%
DC50 [6]: < 10 nM
SMILES: CC1(Oc2ccc3[nH]nc(-c4cc(N5CC[C@H](CN6CCN(CC7CCN(c8ccc9c(c8F)CN(C8CCC(=O)NC8=O)C9=O)CC7)CC6)C5)ncn4)c3c2)CC1 (stereo partly drawn) [Compound 295, 3-(4-fluoro-5-{4-[(4-{[(3R)-1-{6-[5-(1-methylcyclopropoxy)-1H-indazol-3-yl]pyrimidin-4-yl}pyrrolidin-3-yl]methyl}piperazin-1-yl)methyl]piperidin-1-yl}-1-oxo-2,3-dihydro-1H-isoindol-2-yl)piperidine-2,6-dione]

Dmax [5]: 50 to 70%
DC50 [6]: < 10 nM
SMILES: COc1c(N2CCC(CN3CCN(CC4CCN(c5cc(-c6n[nH]c7ccc(OC8(C)CC8)cc67)ncn5)CC4)CC3(C)C)CC2)ccc2c1CN(C1CCC(=O)NC1=O)C2=O (stereo not shown) [Compound 262, 3-{5-[4-({2,2-dimethyl-4-[(1-{6-[5-(1-methylcyclopropoxy)-1H-indazol-3-yl]pyrimidin-4-yl}piperidin-4-yl)methyl]piperazin-1-yl}methyl)piperidin-1-yl]-4-methoxy-1-oxo-2,3-dihydro-1H-isoindol-2-yl}piperidine-2,6-dione]

Dmax [5]: 50 to 70%
DC50 [6]: < 10 nM
SMILES: C[C@H]1CN(CC2(F)CCN(CC3CCN(c4cc(-c5n[nH]c6ccc(OC7(C)CC7)cc56)ncn4)CC3)CC2)CCN1c1ccc2c(c1F)CN(C1CCC(=O)NC1=O)C2=O (stereo partly drawn) [Compound 355, 3-{4-fluoro-5-[(2S)-4-({4-fluoro-1-[(1-{6-[5-(1-methylcyclopropoxy)-1H-indazol-3-yl]pyrimidin-4-yl}piperidin-4-yl)methyl]piperidin-4-yl}methyl)-2-methylpiperazin-1-yl]-1-oxo-2,3-dihydro-1H-isoindol-2-yl}piperidine-2,6-dione]

Dmax [5]: 50 to 70%
DC50 [6]: < 10 nM
SMILES: CC1(Oc2cc3c(-c4cc(N5CCN(C[C@H]6CC[C@H](OC7CCN(c8ccc9c(c8F)CN(C8CCC(=O)NC8=O)C9=O)CC7)CC6)CC5)ncn4)n[nH]c3cc2F)CC1 (stereo partly shown) [Compound 260, 3-[4-fluoro-1-oxo-5-(4-{[(1r,4r)-4-[(4-{6-[6-fluoro-5-(1-methylcyclopropoxy)-1H-indazol-3-yl]pyrimidin-4-yl}piperazin-1-yl)methyl]cyclohexyl]oxy}piperidin-1-yl)-2,3-dihydro-1H-isoindol-2-yl]piperidine-2,6-dione]
